Results on 15 molecules are retold here after patent publication US8846699B2, “Quinazoline derivatives as a multiplex inhibitor and method for the preparation thereof” (Hanmi Pharm. Co., Ltd., priority 2005, dated 2014).

Experiment [1] relates to Human Umbilical Vein Endothelial Cell (HUVEC). Kind of experiment: Inhibitory effect on growth of human umbilical vein endothelial cell (HUVEC), MTS. The class given is cell-based. Conditions: 10 ng/ml VEGF, absorbance 490 nm.
Another experiment deals with EGFR1 (HER-1) (Homo sapiens (Human), UniProt P00533). Kind of experiment: EGFR1 (HER-1) enzyme assay, fluorescence polarization. The format is biochemical. Conditions: 100 μM ATP, poly(Glu, Tyr) substrate.
A further experiment deals with VEGFR2 (KDR) (Homo sapiens (Human), UniProt P35968). Kind of experiment: VEGFR2 (KDR) enzyme assay, fluorescence polarization. The class given is biochemical. Conditions: 5 μM ATP, poly(Glu, Tyr) substrate. An outline of the steps: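 Buffer: 20 mM HEPES pH 7.4 with 5 mM MgCl2, 2 mM MnCl2 and 50 μM Na3VO4. Compound (0.0001–10 μM) was premixed 10 min with VEGFR2 (200 ng/10 μl), then poly(Glu,Tyr) substrate (10 ng/ml) and 5 μM ATP were added for 1 h at room temperature. EDTA-quenched samples were read by FP after 30 min with antibody and tracer.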

In experiment [2] the test system is breast cancer cell line, SK-Br3. Kind of experiment: Inhibitory effect on growth of cancer cell line SK-Br3, SRB. The class given is cell-based. The conditions noted are these: overexpressed EGFR2 (HER-2). An outline of the steps: (§1)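 Growth inhibition was measured by sulforhodamine-B staining (absorbance 570 nm) of TCA-fixed cells after 72 h compound exposure at 37 °C, 5% CO2. Test concentrations ran from 10 μM in 10-fold steps to 10^−4, with DMSO below 1%, in 10% FBS DMEM.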

Experiment [3] relates to skin cancer cell line, A431. Kind of experiment: Inhibitory effect on growth of cancer cell line A431, SRB. The format is cell-based. Conditions: overexpressed EGFR1 (HER-1). The method in brief: as §1
In experiment [4] the test system is colon and rectal cancer cell line, SW-620. In words: Inhibitory effect on growth of cancer cell line SW-620, SRB. The format is cell-based. Conditions: not having overexpressed EGFR and EGFR2. An outline of the steps: as §1

VEGFR2 (KDR), sequence (P35968 20-1356): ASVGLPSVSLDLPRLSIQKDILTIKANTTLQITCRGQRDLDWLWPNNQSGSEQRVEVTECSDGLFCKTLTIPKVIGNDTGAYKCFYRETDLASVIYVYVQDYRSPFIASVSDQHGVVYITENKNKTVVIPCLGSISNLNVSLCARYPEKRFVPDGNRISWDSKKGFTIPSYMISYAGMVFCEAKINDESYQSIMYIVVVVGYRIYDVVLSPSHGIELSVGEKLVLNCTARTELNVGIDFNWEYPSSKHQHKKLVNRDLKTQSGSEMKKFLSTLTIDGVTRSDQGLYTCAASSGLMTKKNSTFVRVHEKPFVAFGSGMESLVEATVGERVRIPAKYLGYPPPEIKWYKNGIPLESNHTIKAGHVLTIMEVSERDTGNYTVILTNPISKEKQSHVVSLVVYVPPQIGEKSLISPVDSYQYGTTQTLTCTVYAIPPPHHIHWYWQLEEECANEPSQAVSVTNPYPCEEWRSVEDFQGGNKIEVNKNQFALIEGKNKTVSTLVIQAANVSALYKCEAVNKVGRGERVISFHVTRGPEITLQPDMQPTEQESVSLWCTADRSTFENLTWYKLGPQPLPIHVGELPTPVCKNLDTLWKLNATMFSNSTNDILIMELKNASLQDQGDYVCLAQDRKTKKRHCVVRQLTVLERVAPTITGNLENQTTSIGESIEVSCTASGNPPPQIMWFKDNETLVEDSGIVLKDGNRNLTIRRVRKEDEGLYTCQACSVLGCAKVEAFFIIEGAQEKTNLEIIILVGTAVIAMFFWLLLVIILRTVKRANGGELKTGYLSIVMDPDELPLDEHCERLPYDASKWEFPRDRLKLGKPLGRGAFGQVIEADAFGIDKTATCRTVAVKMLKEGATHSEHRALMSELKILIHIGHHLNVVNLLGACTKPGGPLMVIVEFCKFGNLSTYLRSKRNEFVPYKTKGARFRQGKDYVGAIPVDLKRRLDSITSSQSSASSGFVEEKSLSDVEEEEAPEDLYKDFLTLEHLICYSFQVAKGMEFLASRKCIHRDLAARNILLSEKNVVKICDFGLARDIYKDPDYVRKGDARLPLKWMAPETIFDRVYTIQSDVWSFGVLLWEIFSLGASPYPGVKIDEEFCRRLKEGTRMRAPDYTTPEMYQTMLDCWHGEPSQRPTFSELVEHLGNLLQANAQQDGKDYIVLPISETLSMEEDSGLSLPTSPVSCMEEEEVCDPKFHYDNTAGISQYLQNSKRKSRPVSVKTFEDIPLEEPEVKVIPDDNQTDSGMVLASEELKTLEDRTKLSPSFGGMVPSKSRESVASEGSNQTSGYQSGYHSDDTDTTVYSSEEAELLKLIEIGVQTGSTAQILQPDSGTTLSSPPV

Regarding `C=CC(=O)Nc1cc2c(Nc3ccc(Br)cc3F)ncnc2cc1OCC1CCN(C(=O)C=C)CC1` [Example 5, N-[7-(1-acryloyl-piperidin-4-ylmethoxy)-4-(4-bromo-2-fluoro-phenylamino)-quinazolin-6-yl]-acrylamide], the half-inhibitory concentration (IC50) in experiment [1] (Homo sapiens, 96 h) was 34 nM; against EGFR1 (HER-1) it was 3 nM; at VEGFR2 (KDR), 203 nM; in experiment [2] (Homo sapiens, SK-BR-3, 72 h) it was 241 nM; in experiment [3] (Homo sapiens, A-431, 72 h) it was 37 nM; in experiment [4] (Homo sapiens, 72 h) it was 2350 nM.
In the case of “N-{2-[6-acryloylamino-4-(4-bromo-2-fluoro-phenylamino)-quinazolin-7-yloxy]-ethyl}-4-dimethylamino-butylamide [Example 66]”, the IC50 in experiment [1] (96 hours) came out at 238 nM; against EGFR1 (HER-1), 21 nM; against VEGFR2 (KDR) it was 125 nM; in experiment [2] (72 hours), 103 nM; in experiment [3] (72 hours) it was 11 nM; in experiment [4] (72 hours), 10000 nM.
Turning to `C=CC(=O)Nc1cc2c(Nc3ccc(Br)cc3F)ncnc2cc1OCCNC(=O)CNC` [Example 60, N-{4-(4-bromo-2-fluoro-phenylamino)-7-[2-(2-methylamino-acetylamino)-ethoxy]-quinazolin-6-yl}-acrylamide], the half-inhibitory concentration (IC50) in experiment [1] (Homo sapiens, 96 h) worked out at 689 nM; against EGFR1 (HER-1), 136 nM; at VEGFR2 (KDR), 685 nM; in experiment [2] (Homo sapiens, SK-BR-3, 72 h), 939 nM; in experiment [3] (Homo sapiens, A-431, 72 h), 125 nM; in experiment [4] (Homo sapiens, 72 h) it was 9570 nM.
Consider `C=CC(=O)Nc1cc2c(Nc3ccc(Br)cc3F)ncnc2cc1OCCNC(=O)C(C)N(C)C` (stereo not drawn) [Example 58, N-{4-(4-bromo-2-fluoro-phenylamino)-7-[2-(2-dimethylamino-propionylamino)-ethoxy]-quinazolin-6-yl}-acrylamide], for which the IC50 in experiment [1] (Homo sapiens, 96 h) came to 945 nM; against EGFR1 (HER-1), 125 nM; against VEGFR2 (KDR), 954 nM; in experiment [2] (Homo sapiens, SK-BR-3, 72 h), 395 nM; in experiment [3] (Homo sapiens, A-431, 72 h), 116 nM; in experiment [4] (Homo sapiens, 72 h), 5510 nM.
`C=CC(=O)Nc1cc2c(Nc3ccc(Br)cc3F)ncnc2cc1OCC1CCN(C(=O)NCC)CC1` [Example 171, 4-[6-acryloylamino-4-(4-bromo-2-fluoro-phenylamino)-quinazolin-7-yloxymethyl]-piperidine-1-carboxylic acid ethylamide]: the IC50 in experiment [1] (Homo sapiens, 96 h) stood at 150 nM; at EGFR1 (HER-1) it was 20 nM; on VEGFR2 (KDR), 136 nM; in experiment [2] (Homo sapiens, SK-BR-3, 72 h), 147 nM; in experiment [3] (Homo sapiens, A-431, 72 h), 25 nM; in experiment [4] (Homo sapiens, 72 h) it was 10000 nM.
Consider `C=CC(=O)Nc1cc2c(Nc3ccc(Br)cc3F)ncnc2cc1OCCNC(=O)C(=C)C` [Example 49, N-{2-[6-acryloylamino-4-(4-bromo-2-fluoro-phenylamino)-quinazolin-7-yloxy]-ethyl}-2-methyl-acrylamide], for which the 50% inhibitory concentration (IC50) was 964 nM in experiment [1] (Homo sapiens, 96 h); 69 nM against EGFR1 (HER-1); 854 nM against VEGFR2 (KDR); 243 nM in experiment [2] (Homo sapiens, SK-BR-3, 72 h); 62 nM in experiment [3] (Homo sapiens, A-431, 72 h); 4590 nM in experiment [4] (Homo sapiens, 72 h).
Consider `C=CC(=O)Nc1cc2c(Nc3cc(Cl)c(Br)cc3F)ncnc2cc1OCCNC(C)=O` [Example 133, N-[7-(2-acetylamino-ethoxy)-4-(4-bromo-5-chloro-2-fluoro-phenylamino)-quinazolin-6-yl]-acrylamide], for which the IC50 was 429 nM in experiment [1] (Homo sapiens, 96 h); 15 nM against EGFR1 (HER-1); 419 nM against VEGFR2 (KDR); 64 nM in experiment [2] (Homo sapiens, SK-BR-3, 72 h); 17 nM in experiment [3] (Homo sapiens, A-431, 72 h); 2320 nM in experiment [4] (Homo sapiens, 72 h).
In the case of `C=CC(=O)Nc1cc2c(Nc3ccc(OCc4cccnc4)c(Cl)c3)ncnc2cc1OCCNC(C)=O` [Example 130, N-{7-(2-acetylamino-ethoxy)-4-[3-chloro-4-(pyridin-3-ylmethoxy)-phenylamino]-quinazolin-6-yl}-acrylamide], the IC50 is 964 nM in experiment [1] (Homo sapiens, 96 h); 796 nM against EGFR1 (HER-1); 853 nM against VEGFR2 (KDR); 987 nM in experiment [2] (Homo sapiens, SK-BR-3, 72 h); 789 nM in experiment [3] (Homo sapiens, A-431, 72 h); 5530 nM in experiment [4] (Homo sapiens, 72 h).
For `C=CC(=O)Nc1cc2c(Nc3ccc(Br)c(F)c3F)ncnc2cc1OCCNC(=O)CCN1CCCCC1` [Example 126, N-{4-(4-bromo-2,3-difluoro-phenylamino)-7-[2-(3-piperidin-1-yl-propionylamino)-ethoxy]-quinazolin-6-yl}-acrylamide], the half-maximal inhibitory concentration (IC50) in experiment [1] (Homo sapiens, 96 h) was found to be 286 nM; at EGFR1 (HER-1) it was 894 nM; against VEGFR2 (KDR) it was 140 nM; in experiment [2] (Homo sapiens, SK-BR-3, 72 h), 1370 nM; in experiment [3] (Homo sapiens, A-431, 72 h) it was 1250 nM; in experiment [4] (Homo sapiens, 72 h) it was 7530 nM.
As for `CCC(=O)Nc1cc2c(Nc3ccc(Br)cc3F)ncnc2cc1OCCNC(C)=O` [Example 77, propionic acid [7-(2-acetylamino-ethoxy)-4-(4-bromo-2-fluoro-phenylamino)-quinazolin-6-yl]-amide], the concentration for half-maximal inhibition (IC50) in experiment [1] (Homo sapiens, 96 h) stood at 350 nM; at EGFR1 (HER-1), 866 nM; against VEGFR2 (KDR), 365 nM; in experiment [2] (Homo sapiens, SK-BR-3, 72 h) it was 7800 nM; in experiment [3] (Homo sapiens, A-431, 72 h) it was 951 nM; in experiment [4] (Homo sapiens, 72 h), 10000 nM.
Consider `C=CC(=O)Nc1cc2c(Nc3ccc(Br)c(Cl)c3F)ncnc2cc1OCCNC(=O)CN(CC)CC` [Example 151, N-{4-(4-bromo-3-chloro-2-fluoro-phenylamino)-7-[2-(2-diethylamino-acetylamino)-ethoxy]-quinazolin-6-yl}-acrylamide], for which the half-maximal inhibitory concentration (IC50) turned out to be 351 nM in experiment [1] (Homo sapiens, 96 h); 58 nM at EGFR1 (HER-1); 309 nM on VEGFR2 (KDR); 153 nM in experiment [2] (Homo sapiens, SK-BR-3, 72 h); 68 nM in experiment [3] (Homo sapiens, A-431, 72 h); 9520 nM in experiment [4] (Homo sapiens, 72 h).
For `C=CC(=O)Nc1cc2c(Nc3ccc(Br)cc3F)ncnc2cc1OCCNC(=O)C1CCCN1` (stereo not drawn) [Example 97, pyrrolidine-2-carboxylic acid {2-[6-acryloylamino-4-(4-bromo-2-fluoro-phenylamino)-quinazolin-7-yloxy]-ethyl}-amide], the concentration for half-maximal inhibition (IC50) in experiment [1] (Homo sapiens, 96 h) was found to be 867 nM; at EGFR1 (HER-1), 1950 nM; against VEGFR2 (KDR), 658 nM; in experiment [2] (Homo sapiens, SK-BR-3, 72 h), 10000 nM; in experiment [3] (Homo sapiens, A-431, 72 h), 2380 nM; in experiment [4] (Homo sapiens, 72 h), 2740 nM.
For the molecule `C=CC(=O)Nc1cc2c(Nc3ccc(Br)cc3F)ncnc2cc1OCCNC(=O)CN` [Example 57, N-[7-[2-(2-amino-acetylamino)-ethoxy]-4-(4-bromo-2-fluoro-phenylamino)-quinazolin-6-yl]-acrylamide], the IC50 came to 379 nM in experiment [1] (Homo sapiens, 96 h); 89 nM on EGFR1 (HER-1); 235 nM against VEGFR2 (KDR); 781 nM in experiment [2] (Homo sapiens, SK-BR-3, 72 h); 91 nM in experiment [3] (Homo sapiens, A-431, 72 h); 9570 nM in experiment [4] (Homo sapiens, 72 h).
Take `C=CC(=O)Nc1cc2c(Nc3ccc(Br)cc3F)ncnc2cc1OCCN` [Example 29, N-[7-(2-amino-ethoxy)-4-(4-bromo-2-fluoro-phenylamino)-quinazolin-6-yl]-acrylamide]: the half-maximal inhibitory concentration (IC50) in experiment [1] (Homo sapiens, 96 h) turned out to be 951 nM; at EGFR1 (HER-1), 4 nM; against VEGFR2 (KDR) it was 545 nM; in experiment [2] (Homo sapiens, SK-BR-3, 72 h), 145 nM; in experiment [3] (Homo sapiens, A-431, 72 h) it was 46 nM; in experiment [4] (Homo sapiens, 72 h), 10000 nM.
As for `C=CC(=O)Nc1cc2c(Nc3ccc(Br)cc3F)ncnc2cc1OCCNC(=O)CN(C)C` [Example 25, N-[4-(4-bromo-2-fluoro-phenylamino)-7-[2-(2-dimethylamino-acetylamino)-ethoxy]-quinazolin-6-yl]-acrylamide], the IC50 in experiment [1] (Homo sapiens, 96 h) came to 786 nM; against EGFR1 (HER-1), 2 nM; at VEGFR2 (KDR) it was 584 nM; in experiment [2] (Homo sapiens, SK-BR-3, 72 h) it was 21 nM; in experiment [3] (Homo sapiens, A-431, 72 h), 16 nM; in experiment [4] (Homo sapiens, 72 h), 5790 nM.
